Laboratory results as given in PMC11267363, “Supramolecular Nanofibers Ameliorate Bleomycin‐Induced Pulmonary Fibrosis by Restoring Autophagy” (Advanced Science, 2024).
Ends that are not written are not given here.

Assays:
[1] = target: bovine serum albumin (BSA) (Bos taurus, UniProt P02769); experiment: Microscale thermophoresis (MST) binding to BSA (negative control protein); settings: BSA as negative control
Protocol: To determine the effects of the self‐assembly factor “Ac‐GFFY” on the secondary structure of the A2 peptide fragment, Circular dichroism (CD) and Fourier transform infrared (FTIR) measurements were performed. […] We subsequently assessed the binding affinity between Ac‐GFFY‐A2 or A2 peptides to the human TRB3 protein or bovine serum albumin (BSA) using microscale thermophoresis (MST) assay, with BSA serving as the control group. […] Therefore, we labeled the peptide with the fluorescence group 7‐nitro‐1,2,3‐benzoxadiazole (NBD) to determine the cellular uptake via flow cytometer. The NBD‐labeled peptide was incubated with both of normal and activated MRC‐5 cells for 4 h, respectively. […] Collectively, under the action of supramolecular self‐assembly, the peptide assemblies with stable secondary conformation can not only be effectively absorbed by MRC‐5 cells but also have the potential to interfere with TRB3/p62 PPIs.
HR‐MS (Varian QFT‐ESI) was used to characterize the molecular weight of compounds. TEM (JEM100CXII) was performed at the Tecnai G2 F20 system, operating at 100 kV. Circular dichroism (CD) spectrum was obtained by a BioLogic (MOS‐450) system. Dynamic light scattering was measured by a ZETAPALS/BI‐200SM (BROOKHAVEN) system. Confocal laser scanning microscopy (CLSM) was measured by Leica TCS SP‐5. Flow cytometry (BD, FACS) was used to detect the cellular uptake. […]

TRB3/p62 PPIs = target: T1, TRB3/p62 PPIs (Homo sapiens, UniProt Q96RU7); experiment: Co-immunoprecipitation and CLSM co-localization of TRB3/p62 in activated MRC-5 cells; type: cell-based; settings: TGF-β1 10 ng/mL, peptide 50 µM, 24 h
T1 construct: endogenous in cells
T1 sequence (Q96RU7 1-358): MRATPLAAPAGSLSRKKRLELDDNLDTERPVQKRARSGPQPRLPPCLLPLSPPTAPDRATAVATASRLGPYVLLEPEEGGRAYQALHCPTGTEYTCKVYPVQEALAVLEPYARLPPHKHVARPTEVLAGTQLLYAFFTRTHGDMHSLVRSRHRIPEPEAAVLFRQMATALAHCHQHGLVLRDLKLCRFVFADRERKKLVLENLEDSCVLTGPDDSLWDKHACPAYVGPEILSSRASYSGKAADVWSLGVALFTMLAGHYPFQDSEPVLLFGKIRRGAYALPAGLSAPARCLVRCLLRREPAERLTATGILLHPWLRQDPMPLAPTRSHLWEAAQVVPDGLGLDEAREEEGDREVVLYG
Protocol: The MRC‐5 cells were seeded on the CLSM dish at a density of 6 × 10^4 cells. After adherence, the solution containing TGF‐β1 (10 ng mL^−1), saline plus TGF‐β1 (10 ng mL^−1), A2 (50 µM) plus TGF‐β1 (10 ng mL^−1), Ac‐GFFY‐A2 (50 µM) TGF‐β1 (10 ng mL^−1), was added to incubate cells for 24 h, respectively. Then, the medium was removed and the cells were washed with cold PBS three times. The cells were fixed with 4% of Paraformaldehyde for 10 min at room temperature. Then, the solution was sucked away, and washed by cold PBS three times for a min each time. 0.1% Triton X‐100 solution was used to disrupt the cell membrane structure. […]
Total proteins were exacted from cells or tissues with RIPA lysis buffer (Beyotime Biotecnology). The protein concentration was measured using BCA Protein Assay Kit (Thermo Scientific). […] The protein transferred PVDF membranes were incubated with following primary antibodies at 4°C overnight: Then the membranes were incubated with horseradish peroxidase (HRP)-conjugated secondary antibodies at room temperature for 1 h, and protein signals were detected using an enhanced chemiluminescence kit (Pierce). […] The co -precipitates were resolved using SDS–PAGE and detected with immunoblotting. […]
Hydroxyproline content of right lung of each mouse was measured using a conventional hydroxyproline method as previously described.

Chain of bovine serum albumin (BSA) (P02769 25-607): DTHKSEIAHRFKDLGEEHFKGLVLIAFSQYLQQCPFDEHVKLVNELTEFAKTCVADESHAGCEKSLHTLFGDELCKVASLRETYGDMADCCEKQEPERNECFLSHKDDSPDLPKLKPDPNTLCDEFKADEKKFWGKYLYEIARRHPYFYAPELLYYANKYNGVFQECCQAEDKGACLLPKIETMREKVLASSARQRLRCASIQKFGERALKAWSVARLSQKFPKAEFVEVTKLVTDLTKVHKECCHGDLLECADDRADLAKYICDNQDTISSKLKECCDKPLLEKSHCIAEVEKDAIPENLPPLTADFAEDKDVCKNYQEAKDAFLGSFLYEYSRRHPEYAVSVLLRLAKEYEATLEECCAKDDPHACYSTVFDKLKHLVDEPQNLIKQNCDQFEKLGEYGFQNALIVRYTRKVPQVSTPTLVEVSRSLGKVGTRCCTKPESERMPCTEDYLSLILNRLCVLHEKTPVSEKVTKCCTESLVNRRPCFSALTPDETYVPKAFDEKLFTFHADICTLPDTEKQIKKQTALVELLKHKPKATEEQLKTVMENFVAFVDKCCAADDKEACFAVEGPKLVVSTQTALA

Substance	binding with BSA [1]	disruption of TRB3/p62 PPIs (co-IP, co-localization) (TRB3/p62 PPIs)
Ac-GFFYGGWLTRLLQTK-OH [Ac-GFFY-A2]	no binding	successfully inhibited the TRB3/p62 PPIs
GGWLTRLLQTK-OH [A2, reference compound]	no binding	minimal capacity to disrupt the TRB3/p62 PPIs
